From PubChem BioAssay (NCI)
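Briefly, cells in 96-well plates were exposed to five compound concentrations for 48 h, and endpoints were estimated by linear interpolation. GI50: concentration for 50% inhibition of growth. TGI denotes the concentration required for complete inhibition of growth.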

Assays:
Test in all cases: NCI tumour cell line growth inhibition, 48 h
[1] = tested on: NCI-H460 lung
[2] = tested on: NCI-H522 lung
[3] = tested on: NCI/ADR-RES ovarian
[4] = tested on: OVCAR-3 ovarian
[5] = tested on: OVCAR-4 ovarian
[6] = tested on: OVCAR-5 ovarian
[7] = tested on: OVCAR-8 ovarian
[8] = tested on: PC-3 prostate
[9] = tested on: RPMI-8226 leukemia
[10] = tested on: RXF 393 renal
[11] = tested on: SF-268 CNS
[12] = tested on: SF-295 CNS
[13] = tested on: SF-539 CNS
[14] = tested on: SK-MEL-2 melanoma
[15] = tested on: SK-MEL-28 melanoma
[16] = tested on: SK-MEL-5 melanoma
[17] = tested on: SK-OV-3 ovarian
[18] = tested on: SN12C renal
[19] = tested on: SNB-19 CNS
[20] = tested on: SNB-75 CNS
[21] = tested on: SR leukemia
[22] = tested on: SW-620 colon
[23] = tested on: T-47D breast
[24] = tested on: TK-10 renal
[25] = tested on: U251 CNS
[26] = tested on: UACC-257 melanoma
[27] = tested on: UACC-62 melanoma
[28] = tested on: UO-31 renal

CN(C)CCCNc1c2ccc(Cl)cc2nc2c1oc1ccccc12
GI50 [1]: 1.64 µM | TGI [1]: 8.1 µM | GI50 [2]: 2.18 µM | TGI [2]: 7.89 µM | GI50 [3]: 1.91 µM | TGI [3]: 12.6 µM | GI50 [4]: 3.45 µM | TGI [4]: 15.6 µM | GI50 [5]: 2.12 µM | TGI [5]: 6.89 µM | GI50 [6]: 2.46 µM | TGI [6]: 7.81 µM | GI50 [7]: 2.42 µM | TGI [7]: 7.87 µM | GI50 [8]: 2.16 µM | TGI [8]: 6.13 µM | GI50 [9]: 2.27 µM | TGI [9]: 5.94 µM | GI50 [10]: 1.64 µM | TGI [10]: 3.76 µM | GI50 [11]: 2.54 µM | TGI [11]: 12.1 µM | GI50 [12]: 3.41 µM | TGI [12]: 15.3 µM | GI50 [13]: 1.76 µM | TGI [13]: 3.39 µM | GI50 [14]: 3.29 µM | TGI [14]: 12.6 µM | GI50 [15]: 4.43 µM | TGI [15]: 16.3 µM | GI50 [16]: 10.6 µM | TGI [16]: 23.8 µM | GI50 [17]: 3.04 µM | TGI [17]: 11.2 µM | GI50 [18]: 2.5 µM | TGI [18]: 11.6 µM | GI50 [19]: 3.37 µM | TGI [19]: 20.5 µM | GI50 [20]: 1.68 µM | TGI [20]: 4.66 µM | GI50 [21]: 2.34 µM | TGI [21]: 10.3 µM | GI50 [22]: 1.24 µM | TGI [22]: 10.1 µM | GI50 [23]: 4.84 µM | TGI [23]: 23.2 µM | GI50 [24]: 4.19 µM | TGI [24]: 22.1 µM | GI50 [25]: 2.69 µM | TGI [25]: 10.3 µM | GI50 [26]: 3.79 µM | TGI [26]: 15.2 µM | GI50 [27]: 5.2 µM | TGI [27]: 19.6 µM | GI50 [28]: 2.09 µM | TGI [28]: 12.8 µM
